Data taken from the Kinase Knowledgebase extract (Sharma et al. 2016).
pIC50: −log10 of the molar value. Several values for one entry are separate records, joined by “and”; a condition that tells them apart may be missing. Equal values may be shown once.

molecular target: MAPK14 (human) (UniProt Q16539); assay: Inhibition of MAPK14 Kinase Activity by PHAS-I Assay; details: not given
Sequence (Q16539 whole entry, looked up): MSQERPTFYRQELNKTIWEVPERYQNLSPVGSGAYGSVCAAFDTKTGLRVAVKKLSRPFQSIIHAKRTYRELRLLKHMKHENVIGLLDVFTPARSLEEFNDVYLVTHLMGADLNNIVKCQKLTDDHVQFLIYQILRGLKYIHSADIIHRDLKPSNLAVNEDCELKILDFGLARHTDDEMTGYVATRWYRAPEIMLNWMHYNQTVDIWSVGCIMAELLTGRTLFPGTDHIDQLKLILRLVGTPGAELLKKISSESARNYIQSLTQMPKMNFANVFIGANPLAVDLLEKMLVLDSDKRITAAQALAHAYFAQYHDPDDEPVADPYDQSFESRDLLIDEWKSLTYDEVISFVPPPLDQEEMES

Structure (SMILES) | pIC50
CC1CCCCN1CCCNc1cc(-c2c[nH]nc2-c2ccc(F)cc2)ccn1 (configuration not stated) | 6.28

same assay, conditions: concentration not given here

Structure (SMILES) | inhibition
CCN(CC)C(=O)NCCCc1[nH]nc(-c2ccc(F)cc2)c1-c1ccncc1 | 89%
C=CCOC(=O)NCCc1[nH]nc(-c2ccc(F)cc2)c1-c1ccncc1 | 86%
O=C(NCCCc1[nH]nc(-c2ccc(F)cc2)c1-c1ccncc1)c1ccc(F)cc1 | 64%
Cc1c(-c2ccncc2)c(-c2ccc(F)cc2)nn1CC(=O)Nc1ccc(C(F)(F)F)cc1 | 81%
Cc1c(-c2ccncc2)c(-c2ccc(F)cc2)nn1CC(=O)NC(Cc1ccccc1)c1ccccc1 (configuration not stated) | 44%
C=CCNC(=O)NCCCc1[nH]nc(-c2ccc(F)cc2)c1-c1ccncc1 | 87%
O=C(NCCCc1[nH]nc(-c2ccc(F)cc2)c1-c1ccncc1)Nc1ccccc1F | 86%
COCCN(C)C(=O)Cn1nc(-c2ccc(F)cc2)c(-c2ccncc2)c1C | 35%

molecular target: MAPK14 (human) (UniProt Q16539); assay: Inhibition of LPS Stimulated TNF Production by U937 Cells; details: not given

Structure (SMILES) | pIC50
O=S(=O)(NCc1[nH]nc(-c2ccc(F)cc2)c1-c1ccncc1)c1ccc(F)cc1F | 5.66
C[C@@H](NS(=O)(=O)Cc1ccccc1)c1[nH]nc(-c2ccc(F)cc2)c1-c1ccncc1 | 7.30
OCCn1cc(-c2ccnc(CCc3ccc(F)cc3)c2)c(-c2ccc(F)cc2)n1 | 6.23
O=C(NCc1[nH]nc(-c2ccc(F)cc2)c1-c1ccncc1)c1ccccc1I | 5.53
Cc1cnccc1-c1cn(C)nc1-c1ccc(F)cc1 | 6.12
O=C(NCCc1[nH]nc(-c2ccc(F)cc2)c1-c1ccncc1)c1cc(Cl)cc(Cl)c1 | < 6.00
Cc1ccc(-c2[nH]nc(C)c2-c2ccncc2)c(C)c1 | 5.98
CC(Oc1ccccc1)C(=O)NCc1[nH]nc(-c2ccc(F)cc2)c1-c1ccncc1 (configuration not stated) | 5.65
O=C(NCCc1[nH]nc(-c2ccc(F)cc2)c1-c1ccncc1)Nc1ccc(F)cc1 | 5.57
Fc1ccc(-c2n[nH]cc2-c2ccnc(-c3c[nH]nc3-c3ccc(F)cc3)c2)cc1 | 6.22
COc1cccc(-c2[nH]nc(C)c2-c2ccncc2)c1 | 6.32
COc1ccc(S(=O)(=O)N[C@@H](Cc2ccccc2)c2[nH]nc(-c3ccc(F)cc3)c2-c2ccncc2)cc1OC | > 6.00
CCN(CC)CCn1cc(-c2ccnc(F)c2)c(-c2ccc(F)cc2)n1 | 5.64
O=S(=O)(c1cccc(Br)c1)N1CCC(c2[nH]nc(-c3ccc(F)cc3)c2-c2ccncc2)CC1 | < 6.00
CN(C)CCCNc1n[nH]c(-c2ccc(F)cc2)c1-c1ccncc1 | 6.57
CS(=O)(=O)NCc1[nH]nc(-c2ccc(F)cc2)c1-c1ccncc1 | 5.30
Cc1ccc(C(=O)N[C@H](Cc2ccccc2)c2[nH]nc(-c3ccc(F)cc3)c2-c2ccncc2)cc1 | < 6.00
CC(C)(C)C(=O)N[C@H](Cc1ccccc1)c1[nH]nc(-c2ccc(F)cc2)c1-c1ccncc1 | < 6.00
C#CCn1cc(-c2ccncc2)c(-c2ccc(F)cc2)n1 | 6.30
Fc1ccc(CNc2cc(-c3cn(CCN4CCOCC4)nc3-c3ccc(F)cc3)ccn2)cc1 | 6.75 and 6.35
CNC(=O)CC[C@H](NS(=O)(=O)Cc1ccccc1)c1[nH]nc(-c2ccc(F)cc2)c1-c1ccncc1 | < 6.00
O=C(C1CC1)N1CCC(c2[nH]nc(-c3ccc(F)cc3)c2-c2ccncc2)CC1 | 6.57
C[C@H](NS(=O)(=O)/C=C/c1ccccc1)c1[nH]nc(-c2ccc(F)cc2)c1-c1ccncc1 | 6.23

same assay, conditions: concentration not given here

Structure (SMILES) | inhibition
C[C@@H](NC(=O)c1ccc(F)c(F)c1)c1[nH]nc(-c2ccc(F)cc2)c1-c1ccncc1 | 52%
C[C@@H](NS(=O)(=O)C(F)(F)F)c1[nH]nc(-c2ccc(F)cc2)c1-c1ccncc1 | 18%
CC(C)c1ccc(S(=O)(=O)N[C@H](C)c2[nH]nc(-c3ccc(F)cc3)c2-c2ccncc2)cc1 | 80%
CC(C)=CC(=O)N[C@H](C)c1[nH]nc(-c2ccc(F)cc2)c1-c1ccncc1 | 28%
CCS(=O)(=O)N[C@@H](CCC(=O)NC)c1[nH]nc(-c2ccc(F)cc2)c1-c1ccncc1 | 13%
CCCNC(=O)N[C@H](C)c1[nH]nc(-c2ccc(F)cc2)c1-c1ccncc1 | 55%
C[C@H](NC(=O)N[C@H](C)c1[nH]nc(-c2ccc(F)cc2)c1-c1ccncc1)c1ccccc1 | 25%
C[C@H](NS(=O)(=O)c1cccc2ccccc12)c1[nH]nc(-c2ccc(F)cc2)c1-c1ccncc1 | 80%
Cc1ccccc1C(=O)NCc1[nH]nc(-c2ccc(F)cc2)c1-c1ccncc1 | 11%
C[C@@H](NC(=O)c1c(F)ccc(F)c1F)c1[nH]nc(-c2ccc(F)cc2)c1-c1ccncc1 | 73%
C[C@H](NS(=O)(=O)c1cccc2nonc12)c1[nH]nc(-c2ccc(F)cc2)c1-c1ccncc1 | 78%
C[C@@H](NS(=O)(=O)c1ccc(S(=O)(=O)c2ccccc2)s1)c1[nH]nc(-c2ccc(F)cc2)c1-c1ccncc1 | 88%
C[C@@H](NC(=O)c1ccccn1)c1[nH]nc(-c2ccc(F)cc2)c1-c1ccncc1 | 24%
O=C(NCCc1[nH]nc(-c2ccc(F)cc2)c1-c1ccncc1)Nc1ccc(F)cc1 | 39%
C[C@@H](NC(=O)N[C@H](C)c1[nH]nc(-c2ccc(F)cc2)c1-c1ccncc1)c1ccccc1 | 28%
CS(=O)(=O)c1ccccc1S(=O)(=O)NCc1[nH]nc(-c2ccc(F)cc2)c1-c1ccncc1 | 23%
C[C@H](NC(=O)Nc1ccc(F)cc1)c1[nH]nc(-c2ccc(F)cc2)c1-c1ccncc1 | 26%
C[C@@H](NS(=O)(=O)c1c(Cl)cccc1Cl)c1[nH]nc(-c2ccc(F)cc2)c1-c1ccncc1 | 75%

Structure (SMILES) | inhibition
CCCCS(=O)(=O)N[C@H](C)c1[nH]nc(-c2ccc(F)cc2)c1-c1ccncc1 | 45%
N#Cc1cccc(S(=O)(=O)N2CCC(c3[nH]nc(-c4ccc(F)cc4)c3-c3ccncc3)CC2)c1 | 14%
CC(C)C(=O)N[C@H](C)c1[nH]nc(-c2ccc(F)cc2)c1-c1ccncc1 | 40%
O=[N+]([O-])c1cc(S(=O)(=O)NCc2[nH]nc(-c3ccc(F)cc3)c2-c2ccncc2)ccc1Cl | 15%
O=C(NCc1[nH]nc(-c2ccc(F)cc2)c1-c1ccncc1)Nc1ccc(OC(F)(F)F)cc1 | 11%
C[C@@H](NS(=O)(=O)c1cc(Cl)c(Cl)s1)c1[nH]nc(-c2ccc(F)cc2)c1-c1ccncc1 | 75%
C[C@H](NS(=O)(=O)c1c(Cl)cccc1Cl)c1[nH]nc(-c2ccc(F)cc2)c1-c1ccncc1 | 77%
Cc1c(-c2ccncc2)c(-c2ccc(F)cc2)nn1CC(=O)N[C@H](C)c1cccc2ccccc12 | 23%
O=S(=O)(NCc1[nH]nc(-c2ccc(F)cc2)c1-c1ccncc1)c1ccccc1Br | 68%
COc1ccc(CC(=O)N[C@@H](C)c2[nH]nc(-c3ccc(F)cc3)c2-c2ccncc2)cc1OC | 28%
C[C@H](NS(=O)(=O)c1ccc(-c2ccccn2)s1)c1[nH]nc(-c2ccc(F)cc2)c1-c1ccncc1 | 92%
C[C@H](NC(=O)c1cc(C(F)(F)F)ccc1F)c1[nH]nc(-c2ccc(F)cc2)c1-c1ccncc1 | 32%
Cc1cccc(C(=O)N[C@@H](C)c2[nH]nc(-c3ccc(F)cc3)c2-c2ccncc2)c1 | 29%
COc1ccccc1C(=O)N[C@H](C)c1[nH]nc(-c2ccc(F)cc2)c1-c1ccncc1 | 23%
CC(C)OC(=O)N[C@@H](C)c1[nH]nc(-c2ccc(F)cc2)c1-c1ccncc1 | 53%
C=CCNC(=O)N[C@@H](C)c1[nH]nc(-c2ccc(F)cc2)c1-c1ccncc1 | 42%
COc1cccc(C(=O)N[C@H](Cc2ccccc2)c2[nH]nc(-c3ccc(F)cc3)c2-c2ccncc2)c1 | 38%
